From ChEMBL document CHEMBL1201862, “PubChem BioAssay data set” (2004)
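A five-concentration, 48-hour dose response in 96-well plates underlies each endpoint, interpolated linearly between surrounding concentrations. Abbreviation: GI50, concentration required for 50% inhibition of growth.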 The source made the active and inactive calls. No stated cut-off is given here; in the data, active = GI50 up to about 1.1 µM and inactive = higher.

Experiments:
Experiment in all cases: NCI tumour cell line growth inhibition, 48 h
[1] = system: HOP-92
[2] = system: SK-OV-3
[3] = system: MCF7
[4] = system: OVCAR-5
[5] = system: M14
[6] = system: HCT-15
[7] = system: SN12C
[8] = system: LOX IMVI
[9] = system: A498
[10] = system: PC-3
[11] = system: T47D
[12] = system: UACC-62
[13] = system: SF-295
[14] = system: ACHN
[15] = system: Malme-3M
[16] = system: UO-31
[17] = system: MDA-N
[18] = system: SK-MEL-5
[19] = system: K562
[20] = system: SF-539

Compound	GI50 [1]	GI50 [2]	GI50 [3]	GI50 [4]	GI50 [5]	GI50 [6] [µM]	GI50 [7]	GI50 [8]	GI50 [9]	GI50 [10]	GI50 [11]	GI50 [12]	GI50 [13]	GI50 [14]	GI50 [15]	GI50 [16]	GI50 [17]	GI50 [18]	GI50 [19]	GI50 [20]
CC(C)(C)OC(=O)NCCCCC1NC(=O)[C@@H]2Cc3c([nH]c4ccccc34)C(C3CCCCC3)N2C1=O (some centres undefined)	26 µM (inactive)	53.7 µM (inactive)	30.6 µM (inactive)	> 100 µM (inactive)	22.9 µM (inactive)	36	39.1 µM (inactive)	31.2 µM (inactive)	> 100 µM (inactive)	18.3 µM (inactive)	12.9 µM (inactive)	32.4 µM (inactive)	19.8 µM (inactive)	45.6 µM (inactive)	> 100 µM (inactive)	35.1 µM (inactive)	25.4 µM (inactive)	33.6 µM (inactive)	30.8 µM (inactive)	–
O=C(O)c1cccc(/[As]=[As]\c2cccc(C(=O)O)c2)c1 (centres undefined)	18.7 µM (inactive)	–	32.9 µM (inactive)	24.5 µM (inactive)	45.9 µM (inactive)	36.3	38.2 µM (inactive)	18.2 µM (inactive)	28 µM (inactive)	16.9 µM (inactive)	34.9 µM (inactive)	33.3 µM (inactive)	> 100 µM (inactive)	73.3 µM (inactive)	21.4 µM (inactive)	38.2 µM (inactive)	61.1 µM (inactive)	32.7 µM (inactive)	34.7 µM (inactive)	16.6 µM (inactive)
CC(=O)O.CN1CCN(CN2C(=O)C3C4C=CC(C3C2=O)C2C3C(=O)N(CN5CCN(C)CC5)C(=O)C3C42)CC1 (centres undefined)	–	–	32.3 µM (inactive)	23.9 µM (inactive)	18.9 µM (inactive)	18.9	21.4 µM (inactive)	18.2 µM (inactive)	> 55.3 µM (inactive)	33.7 µM (inactive)	30 µM (inactive)	20.7 µM (inactive)	–	27.6 µM (inactive)	18.3 µM (inactive)	25.2 µM (inactive)	17.8 µM (inactive)	23.4 µM (inactive)	22.2 µM (inactive)	21.1 µM (inactive)
O=C(c1ccccc1)c1ccc(N2C(=O)/C(=C/Cc3ccco3)N=C2c2ccccc2)c(N2C(=O)/C(=C/Cc3ccco3)N=C2c2ccccc2)c1	97.1 µM (inactive)	30.5 µM (inactive)	52 µM (inactive)	> 100 µM (inactive)	39.9 µM (inactive)	45	71.6 µM (inactive)	24.2 µM (inactive)	51.5 µM (inactive)	39.8 µM (inactive)	36.4 µM (inactive)	26.5 µM (inactive)	30 µM (inactive)	33 µM (inactive)	–	39 µM (inactive)	60.3 µM (inactive)	26.1 µM (inactive)	64.7 µM (inactive)	16.2 µM (inactive)
CC1CCN(c2nnc(Cl)cc2C(=O)c2ccccc2)CC1	16 µM (inactive)	–	19.4 µM (inactive)	77.4 µM (inactive)	27 µM (inactive)	35.6	50.7 µM (inactive)	29.4 µM (inactive)	35.7 µM (inactive)	20.4 µM (inactive)	31.5 µM (inactive)	26.8 µM (inactive)	24.7 µM (inactive)	49.9 µM (inactive)	–	23.1 µM (inactive)	21.7 µM (inactive)	16.6 µM (inactive)	53 µM (inactive)	25.4 µM (inactive)
N=C1OC(CN2CCN(c3ccccc3)CC2)CN1C(=O)Nc1ccccc1 (centres undefined)	> 100 µM (inactive)	> 100 µM (inactive)	> 100 µM (inactive)	> 100 µM (inactive)	> 100 µM (inactive)	> 100	> 100 µM (inactive)	> 100 µM (inactive)	> 100 µM (inactive)	> 100 µM (inactive)	> 100 µM (inactive)	> 100 µM (inactive)	> 100 µM (inactive)	> 100 µM (inactive)	> 100 µM (inactive)	> 100 µM (inactive)	> 100 µM (inactive)	> 100 µM (inactive)	60.5 µM (inactive)	–
OC1CSCCCSCCSCCCSC1	> 100 µM (inactive)	> 100 µM (inactive)	> 100 µM (inactive)	> 100 µM (inactive)	> 100 µM (inactive)	> 100	> 100 µM (inactive)	> 100 µM (inactive)	> 100 µM (inactive)	> 100 µM (inactive)	> 100 µM (inactive)	> 100 µM (inactive)	> 100 µM (inactive)	> 100 µM (inactive)	–	> 100 µM (inactive)	> 100 µM (inactive)	> 100 µM (inactive)	> 100 µM (inactive)	> 100 µM (inactive)
CCOC(=O)c1cc(Br)c(-c2onc(C)c2Br)n1C	–	21.9 µM (inactive)	23.6 µM (inactive)	19.4 µM (inactive)	40.6 µM (inactive)	37.6	23.1 µM (inactive)	34 µM (inactive)	45.2 µM (inactive)	35.3 µM (inactive)	15.6 µM (inactive)	27.9 µM (inactive)	23.9 µM (inactive)	41.6 µM (inactive)	52.8 µM (inactive)	45.9 µM (inactive)	43 µM (inactive)	16.9 µM (inactive)	30.5 µM (inactive)	> 100 µM (inactive)
COC(=O)c1c(C)c2c(c(C)c1C(=O)OC)-c1c(C)ccc3ccc(C)c-2c13	–	> 74.8 µM (inactive)	> 78.3 µM (inactive)	> 68.7 µM (inactive)	21 µM (inactive)	13	> 93.8 µM (inactive)	12.1 µM (inactive)	> 72.6 µM (inactive)	28.7 µM (inactive)	18.4 µM (inactive)	47.5 µM (inactive)	11.4 µM (inactive)	> 100 µM (inactive)	> 55.1 µM (inactive)	47.8 µM (inactive)	61.5 µM (inactive)	13.1 µM (inactive)	3.03 µM (inactive)	51.5 µM (inactive)
COc1ccc(C2(CC(C)C)CCNC2)cc1OC (centres undefined)	19.8 µM (inactive)	> 100 µM (inactive)	84.1 µM (inactive)	> 100 µM (inactive)	> 100 µM (inactive)	> 100	> 100 µM (inactive)	> 100 µM (inactive)	> 100 µM (inactive)	> 100 µM (inactive)	31.5 µM (inactive)	> 100 µM (inactive)	> 100 µM (inactive)	> 100 µM (inactive)	> 100 µM (inactive)	50.9 µM (inactive)	> 100 µM (inactive)	> 100 µM (inactive)	> 100 µM (inactive)	–
C=C[C@@]1(C)CC(=O)[C@]2(O)[C@@]3(C)[C@@H](OC(C)=O)CCC(C)(C)[C@@H]3[C@H](O)[C@H](OC(C)=O)[C@@]2(C)O1	> 100 µM (inactive)	> 100 µM (inactive)	> 100 µM (inactive)	> 100 µM (inactive)	> 100 µM (inactive)	> 100	> 100 µM (inactive)	> 100 µM (inactive)	> 100 µM (inactive)	> 100 µM (inactive)	> 100 µM (inactive)	> 100 µM (inactive)	> 100 µM (inactive)	> 100 µM (inactive)	–	> 100 µM (inactive)	> 100 µM (inactive)	–	> 100 µM (inactive)	> 100 µM (inactive)
Cc1cn(CCCCCOC(=O)NC(CCCNC(=N)N)C(=O)O)c(=O)[nH]c1=O (centres undefined)	> 100 µM (inactive)	48.9 µM (inactive)	54.7 µM (inactive)	> 100 µM (inactive)	55.6 µM (inactive)	28.1	56.8 µM (inactive)	53.6 µM (inactive)	24.9 µM (inactive)	40.8 µM (inactive)	> 100 µM (inactive)	26.7 µM (inactive)	28.2 µM (inactive)	72.3 µM (inactive)	–	> 100 µM (inactive)	6.9 µM (inactive)	–	16.1 µM (inactive)	45.7 µM (inactive)
O=c1c(-c2ccc3c(c2)OCO3)coc2c3c(ccc12)OCO3	18 µM (inactive)	18.1 µM (inactive)	15.9 µM (inactive)	56.6 µM (inactive)	30 µM (inactive)	28.4	41.8 µM (inactive)	45.2 µM (inactive)	29 µM (inactive)	75.9 µM (inactive)	37.8 µM (inactive)	76.7 µM (inactive)	18 µM (inactive)	18.5 µM (inactive)	–	43.7 µM (inactive)	93.5 µM (inactive)	> 100 µM (inactive)	> 100 µM (inactive)	20 µM (inactive)
C[C@@H]1CC(=O)[C@@]2(C)[C@](O)(CCC3O[C@]32C)[C@@]12CC(c1ccoc1)OC2=O (some centres undefined)	–	> 100 µM (inactive)	84.5 µM (inactive)	> 100 µM (inactive)	72.4 µM (inactive)	37.8	–	35.2 µM (inactive)	94.4 µM (inactive)	> 100 µM (inactive)	> 100 µM (inactive)	56.9 µM (inactive)	> 100 µM (inactive)	70.6 µM (inactive)	50.7 µM (inactive)	> 100 µM (inactive)	33.5 µM (inactive)	44.3 µM (inactive)	39.1 µM (inactive)	> 100 µM (inactive)
O=C(/C=C/c1ccc(O)cc1)NCCc1ccc(O)cc1 [N-P-COUMAROYL TYRAMINE]	5.14 µM (inactive)	–	> 12.5 µM (inactive)	> 12.5 µM (inactive)	> 12.5 µM (inactive)	> 12.5	5 µM (inactive)	> 12.5 µM (inactive)	> 12.5 µM (inactive)	8.57 µM (inactive)	> 12.5 µM (inactive)	7.41 µM (inactive)	8.13 µM (inactive)	3.49 µM (inactive)	> 12.5 µM (inactive)	11.1 µM (inactive)	> 12.5 µM (inactive)	> 12.5 µM (inactive)	5.6 µM (inactive)	3.13 µM (inactive)
